Assays:
[1] = molecular target: T1, hMRP2 (Homo sapiens, UniProt Q92887); experiment: Two-point inhibition of hMRP2-mediated efflux of CDCF in transfected HEK293 cells; type: in vitro ADME; details: 1 and 10 μM; CDCF-DA 5 μM, efflux 10 min
T1 construct: expressed in transfected cells; host or cells: HEK293
Experimental: (§1) Well-characterized mOct1-, mOct2-, mOat1-, mOat2-, mOat3-, mMate1-, hOAT1-, hOAT3-, hOAT4-, hMRP2-, mMdr1a- and mMdr1b-transfected HEK293 cells and the respective vector-transfected control HEK293 cells were used.[42],[51],[52] All HEK293 cells (transporter-transfected and vector-transfected) were cultured in DMEM (Sigma, high glucose, 10% FBS, 1% penicillin (10,000 Units/mL)/streptomycin (10 mg/mL)) at 37°C under 5% CO2 in humidified atmosphere. The cells were routinely checked for the absence of mycoplasma infection. For the preparation of HEK293 cell monolayers, 24-well plates were pretreated with a poly-D-lysine hydrobromide solution (0.1 mg/mL). Each well was coated with 0.5 mL of poly-D-lysine solution and incubated for at least 15 min. […]
After preloading, the incubation buffer was removed, cells were washed twice with cold HBSS incubation buffer, and for the efflux, 0.2 mL of incubation buffer was added to each well containing the nonlabeled CHD and CDCHD or reference inhibitor (Table S1) and incubated at 37 °C for designated time intervals. […] Samples were diluted with incubation buffer, and fluorescence was measured in a 96-well plate (Sarstedt, flat bottom) at an extinction of 490 nm and emission of 535 nm. […]
(§2) The inhibitory effect I (%) and the efflux ratio was calculated in the same way described for the uptake assays.

[2] = molecular target: T2, mMdr1b (Mus musculus, UniProt P06795); experiment: Two-point inhibition of mMdr1b-mediated efflux of rhodamin123 in transfected HEK293 cells; type: in vitro ADME; details: rhodamin123 10 μM, efflux 30 min
T2 construct: expressed in transfected cells; host or cells: HEK293
Experimental: as §1
For efflux assays, growth medium was aspirated, and each well was rinsed twice with 0.5 mL of incubation HBSS buffer (supplemented with 20 mM HEPES, pH 7.4) and then preincubated in 200 μL of incubation buffer containing 10 μM rhodamin123 and 10 μM cyclosporine A for 60 min at 37 °C for loading the cells with rhodamin123. […] Samples were diluted with incubation buffer, and fluorescence was measured in a 96-well plate (Sarstedt, flat bottom) at an extinction of 490 nm and emission of 535 nm. […]
as §2

T1 sequence (Q92887 whole entry): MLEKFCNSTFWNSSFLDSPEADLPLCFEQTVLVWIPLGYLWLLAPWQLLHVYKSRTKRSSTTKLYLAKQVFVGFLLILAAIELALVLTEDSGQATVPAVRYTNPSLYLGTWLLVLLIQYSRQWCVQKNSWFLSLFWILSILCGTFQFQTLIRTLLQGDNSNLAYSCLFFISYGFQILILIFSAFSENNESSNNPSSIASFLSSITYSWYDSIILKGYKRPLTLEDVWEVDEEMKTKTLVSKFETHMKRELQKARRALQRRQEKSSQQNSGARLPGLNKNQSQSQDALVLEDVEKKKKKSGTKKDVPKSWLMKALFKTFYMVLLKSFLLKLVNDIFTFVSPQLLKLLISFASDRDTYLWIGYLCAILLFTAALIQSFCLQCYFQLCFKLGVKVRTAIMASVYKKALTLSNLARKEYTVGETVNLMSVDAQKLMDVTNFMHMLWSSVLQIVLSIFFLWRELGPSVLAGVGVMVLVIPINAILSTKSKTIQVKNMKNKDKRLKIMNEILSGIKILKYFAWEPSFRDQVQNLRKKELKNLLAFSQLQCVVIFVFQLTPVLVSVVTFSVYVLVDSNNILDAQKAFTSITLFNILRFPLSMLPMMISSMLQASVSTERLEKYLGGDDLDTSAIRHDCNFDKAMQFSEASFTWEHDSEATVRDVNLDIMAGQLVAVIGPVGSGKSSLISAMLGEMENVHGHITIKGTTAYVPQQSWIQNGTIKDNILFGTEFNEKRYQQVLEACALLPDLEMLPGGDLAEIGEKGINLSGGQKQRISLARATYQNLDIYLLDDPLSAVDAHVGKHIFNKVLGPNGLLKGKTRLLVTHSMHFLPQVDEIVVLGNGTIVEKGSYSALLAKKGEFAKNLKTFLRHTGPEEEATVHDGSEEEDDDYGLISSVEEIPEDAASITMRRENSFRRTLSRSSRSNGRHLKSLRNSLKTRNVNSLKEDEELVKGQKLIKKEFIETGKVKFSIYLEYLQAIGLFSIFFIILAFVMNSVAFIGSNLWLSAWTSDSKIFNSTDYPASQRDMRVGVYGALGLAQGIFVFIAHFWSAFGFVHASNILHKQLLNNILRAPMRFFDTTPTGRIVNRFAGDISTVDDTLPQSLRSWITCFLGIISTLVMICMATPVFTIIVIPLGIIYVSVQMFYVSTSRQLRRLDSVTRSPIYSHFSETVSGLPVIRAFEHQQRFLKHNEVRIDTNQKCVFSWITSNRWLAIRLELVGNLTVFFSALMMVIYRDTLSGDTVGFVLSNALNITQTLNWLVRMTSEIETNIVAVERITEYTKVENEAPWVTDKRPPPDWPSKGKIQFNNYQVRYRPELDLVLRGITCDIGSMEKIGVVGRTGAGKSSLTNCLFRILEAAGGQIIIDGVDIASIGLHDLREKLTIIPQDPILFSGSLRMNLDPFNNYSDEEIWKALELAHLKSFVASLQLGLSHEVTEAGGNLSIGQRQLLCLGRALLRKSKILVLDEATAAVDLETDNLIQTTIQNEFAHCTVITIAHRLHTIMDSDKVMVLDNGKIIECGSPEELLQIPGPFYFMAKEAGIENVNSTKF
T2 sequence (P06795 whole entry): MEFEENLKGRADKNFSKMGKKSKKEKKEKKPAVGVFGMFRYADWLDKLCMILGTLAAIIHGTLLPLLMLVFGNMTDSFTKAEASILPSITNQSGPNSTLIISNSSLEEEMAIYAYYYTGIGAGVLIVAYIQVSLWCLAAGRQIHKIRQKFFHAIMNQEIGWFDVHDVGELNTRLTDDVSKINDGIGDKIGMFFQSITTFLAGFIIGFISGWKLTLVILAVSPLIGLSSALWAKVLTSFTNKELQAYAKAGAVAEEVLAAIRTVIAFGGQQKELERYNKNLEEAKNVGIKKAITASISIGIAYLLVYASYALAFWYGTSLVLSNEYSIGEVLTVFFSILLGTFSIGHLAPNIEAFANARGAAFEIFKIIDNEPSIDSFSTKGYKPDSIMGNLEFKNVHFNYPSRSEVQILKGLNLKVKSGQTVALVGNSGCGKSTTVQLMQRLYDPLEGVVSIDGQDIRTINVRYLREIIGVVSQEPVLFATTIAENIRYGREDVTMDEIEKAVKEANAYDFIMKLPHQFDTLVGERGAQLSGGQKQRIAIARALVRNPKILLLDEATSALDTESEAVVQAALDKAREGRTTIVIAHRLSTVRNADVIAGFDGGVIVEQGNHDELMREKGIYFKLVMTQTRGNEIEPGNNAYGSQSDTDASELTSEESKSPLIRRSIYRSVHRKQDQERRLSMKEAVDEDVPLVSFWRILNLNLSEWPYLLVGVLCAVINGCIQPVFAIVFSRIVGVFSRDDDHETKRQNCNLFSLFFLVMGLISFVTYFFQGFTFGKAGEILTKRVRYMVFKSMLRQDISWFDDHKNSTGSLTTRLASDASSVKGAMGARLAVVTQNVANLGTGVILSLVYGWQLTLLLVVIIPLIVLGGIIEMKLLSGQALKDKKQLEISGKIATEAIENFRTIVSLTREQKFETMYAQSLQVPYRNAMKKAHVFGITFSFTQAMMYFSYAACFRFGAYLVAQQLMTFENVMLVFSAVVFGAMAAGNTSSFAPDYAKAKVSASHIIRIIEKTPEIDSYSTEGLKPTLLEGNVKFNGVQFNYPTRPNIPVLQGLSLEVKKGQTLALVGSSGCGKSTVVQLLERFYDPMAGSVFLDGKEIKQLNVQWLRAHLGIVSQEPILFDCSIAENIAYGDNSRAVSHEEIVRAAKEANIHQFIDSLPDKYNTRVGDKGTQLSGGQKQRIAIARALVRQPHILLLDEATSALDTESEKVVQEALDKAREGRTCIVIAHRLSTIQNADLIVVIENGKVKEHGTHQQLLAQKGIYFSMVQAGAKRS

SMILES	inhibitory effect on hMRP2 (in words) [1]	inhibition at 10 µM ([2]; HEK293, at 10 μM, read-out: inhibitory effect on mMdr1b) [%]	inhibitory effect on mMdr1b (in words) ([2]; 1 and 10 μM)
Cc1ccc2c(C)c3c(c(O)c2c1O)C(=O)[C@@]1(O)C(=O)C(C(N)=O)=C(O)[C@@H](N)[C@H]1C3 [CDCHD, amidochelocardin]	slight inhibitory effect	~30	–
CC(=O)C1=C(O)[C@@H](N)[C@H]2Cc3c(c(O)c4c(O)c(C)ccc4c3C)C(=O)[C@@]2(O)C1=O [CHD, chelocardin]	slight inhibitory effect	–	no effect
